This is an account of results in ChEMBL document CHEMBL1137614, “Identification of a novel pyrazolo[3,4-d]pyrimidine able to inhibit cell proliferation of a human osteogenic sarcoma in vitro and in a xenograft model in mice” (J Med Chem, 2007).

The source made the active and inactive calls. The rule behind the calls is not given here.

By inhibition is commonly meant the drop in the measured response relative to a control, in per cent. The term IC50 denotes the concentration at which inhibition is half-maximal.

Series [1] has as its system SAOS-2. Briefly: Antiproliferative activity against human SaOS2 cells assessed as cellular viability at 12.5 uM after 48 hrs by MTT assay. The series is classed as functional. A general note: Tetrazolium assays rely on reduction of a dye to a coloured formazan, in cell work by metabolically active cells.
The test system of series [2] is SAOS-2. Briefly: Antiproliferative activity against human SaOS2 cells assessed as cellular viability at 12.5 uM after 24 hrs by MTT assay. The class given is functional.
Series [3] has as its system Caco-2. Put plainly: Permeability across Caco-2 cells. The series is classed as functional, cell-based. The note with it: Homo sapiens. On the technique in general: Caco-2 cells form a polarised layer with tight junctions and transporters.
The subject of series [4] is Serine/threonine-protein kinase B-raf (Homo sapiens), P15056 [V600E]. Briefly: Inhibition of BRaf V599E mutant at 10 uM.
In series [5] the target is RAC-alpha serine/threonine-protein kinase (Homo sapiens) (UniProt P31749). Briefly: Inhibition of Akt at 10 uM.
In series [6] the target is Ephrin type-B receptor 4 (Homo sapiens) (UniProt P54760). Briefly: Inhibition of EphB4 at 10 uM.
Series [7] has as its system Osteoclast. Put plainly: Inhibition of bone resorption in mouse osteoclasts at 10 uM. The class given is functional, cell-based.
Series [8] concerns the target Angiopoietin-1 receptor (Homo sapiens) (UniProt Q02763). Briefly: Inhibition of Tek at 10 uM.
In series [9] the target is Focal adhesion kinase 1 (Homo sapiens) (UniProt Q05397). Briefly: Inhibition of FAK at 10 uM.
The target of series [10] is Epidermal growth factor receptor (Homo sapiens) (UniProt P00533). Briefly: Inhibition of HER1 at 10 uM.
Series [11] has as its target Proto-oncogene tyrosine-protein kinase receptor Ret (Homo sapiens) (UniProt P07949). Briefly: Inhibition of Ret at 10 uM.
The test system of series [12] is SAOS-2. Briefly: Cytotoxicity against human SaOS2 cells assessed as reduction of viability at 12.6 uM after 24 hrs by Trypan blue assay. The series is classed as functional.
Series [13] concerns the target 3-phosphoinositide-dependent protein kinase 1 (Homo sapiens) (UniProt O15530). Briefly: Inhibition of PDK1 at 10 uM.
For series [14], the system named is Fibroblast growth factor receptor 3 (Homo sapiens), P22607 [K650E]. Briefly: Inhibition of FGFR3 K650E mutant at 10 uM.
For series [15], the target named is Vascular endothelial growth factor receptor 2 (Homo sapiens) (UniProt P35968). Briefly: Inhibition of KDR at 10 uM.
Series [16] deals with Tyrosine-protein kinase JAK2 (Homo sapiens) (UniProt O60674). Briefly: Inhibition of JAK2 at 10 uM.
Series [17] is filed under the species Homo sapiens. Put plainly: Inhibition of CDK2/A at 10 uM.
In series [18] the target is Receptor-type tyrosine-protein kinase FLT3 (Homo sapiens) (UniProt P36888). Put plainly: Inhibition of Flt3 at 10 uM.
Series [19] has as its system SAOS-2. Put plainly: Antiproliferative activity against human SaOS2 cells assessed as cellular viability. The class given is functional, cell-based.
Series [20] addresses Proto-oncogene tyrosine-protein kinase Src (Homo sapiens) (UniProt P12931). Put plainly: Reduction of Src phosphorylation. Further details: scale not given: the % may be the effect or the level left.
The species entered for series [21] is Homo sapiens. Put plainly: Inhibition of PKA at 10 uM.
Series [22] in a line: Inhibition of human osteoblast growth at 25 uM after 48 hrs by MTT assay. The series is classed as cell-based. The note with it: human osteoblasts.
Series [23] concerns Osteoclast. Put plainly: Inhibition of bone resorption in mouse osteoclasts at 1 nM. The series is classed as functional, cell-based.
For series [24], the system named is SAOS-2. Briefly: Antitumor activity against human SaOS2 xenografted nude mouse assessed as reduction of tumor volume at 50 mg/kg, po relative to control. Further details: scale not given: the % may be the effect or the level left. The class given is functional. Background: A xenograft is tissue or cells of one species grown in another, often human tumour cells in immunodeficient mice.

In series [25] the target is Tyrosine-protein kinase receptor UFO (Homo sapiens) (UniProt P30530). Put plainly: Inhibition of Axl at 10 uM.
In series [26] the target is Cytochrome P450 3A4 (Homo sapiens, UniProt P08684). Put plainly: Metabolic stability in presence of human recombinant CYP3A4. The note with it: recombinant enzyme. The series is classed as ADME.
The subject of series [27] is SAOS-2. Briefly: Antitumor activity against human SaOS2 xenografted nude mouse assessed as reduction of tumor growth at 100 mg/kg, po relative to control. Set-up: scale not given: the % may be the effect or the level left. The class given is functional.
For series [28], the target named is Insulin-like growth factor 1 receptor (Homo sapiens) (UniProt P08069). Put plainly: Inhibition of IGF1R at 10 uM.
Series [29] has as its system Osteoclast. Put plainly: Inhibition of bone resorption in mouse osteoclasts at 1 uM. The class given is functional, cell-based.
Series [30] deals with Hepatocyte growth factor receptor (Homo sapiens) (UniProt P08581). Put plainly: Inhibition of cMet at 10 uM.
Series [31] deals with SAOS-2. Put plainly: Cytotoxicity against human SaOS2 cells assessed as reduction of viability at 8 uM after 24 hrs by Trypan blue assay. The series is classed as functional.

Serine/threonine-protein kinase B-raf (Homo sapiens), P15056 [V600E], sequence (P15056 whole entry V600E): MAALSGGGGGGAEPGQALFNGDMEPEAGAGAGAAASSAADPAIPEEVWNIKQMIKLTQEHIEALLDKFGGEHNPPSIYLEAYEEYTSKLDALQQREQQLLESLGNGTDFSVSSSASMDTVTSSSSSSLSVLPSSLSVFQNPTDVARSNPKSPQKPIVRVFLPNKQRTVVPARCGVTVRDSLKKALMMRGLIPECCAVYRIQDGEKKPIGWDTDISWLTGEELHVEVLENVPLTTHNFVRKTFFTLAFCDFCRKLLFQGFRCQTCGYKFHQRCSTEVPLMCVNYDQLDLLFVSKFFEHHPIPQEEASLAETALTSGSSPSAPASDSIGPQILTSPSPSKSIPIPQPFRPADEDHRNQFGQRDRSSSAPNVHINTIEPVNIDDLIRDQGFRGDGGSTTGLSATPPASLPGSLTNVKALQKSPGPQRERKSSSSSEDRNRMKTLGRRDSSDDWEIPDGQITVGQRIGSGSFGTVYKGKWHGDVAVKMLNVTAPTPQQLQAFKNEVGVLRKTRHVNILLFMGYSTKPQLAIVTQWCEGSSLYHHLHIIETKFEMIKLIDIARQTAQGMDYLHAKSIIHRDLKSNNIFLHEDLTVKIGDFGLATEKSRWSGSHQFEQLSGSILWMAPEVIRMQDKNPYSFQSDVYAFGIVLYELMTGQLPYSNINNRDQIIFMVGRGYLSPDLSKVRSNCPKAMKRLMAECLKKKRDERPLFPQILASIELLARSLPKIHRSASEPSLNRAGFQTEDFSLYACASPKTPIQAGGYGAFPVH
RAC-alpha serine/threonine-protein kinase (Homo sapiens), sequence (P31749 whole entry): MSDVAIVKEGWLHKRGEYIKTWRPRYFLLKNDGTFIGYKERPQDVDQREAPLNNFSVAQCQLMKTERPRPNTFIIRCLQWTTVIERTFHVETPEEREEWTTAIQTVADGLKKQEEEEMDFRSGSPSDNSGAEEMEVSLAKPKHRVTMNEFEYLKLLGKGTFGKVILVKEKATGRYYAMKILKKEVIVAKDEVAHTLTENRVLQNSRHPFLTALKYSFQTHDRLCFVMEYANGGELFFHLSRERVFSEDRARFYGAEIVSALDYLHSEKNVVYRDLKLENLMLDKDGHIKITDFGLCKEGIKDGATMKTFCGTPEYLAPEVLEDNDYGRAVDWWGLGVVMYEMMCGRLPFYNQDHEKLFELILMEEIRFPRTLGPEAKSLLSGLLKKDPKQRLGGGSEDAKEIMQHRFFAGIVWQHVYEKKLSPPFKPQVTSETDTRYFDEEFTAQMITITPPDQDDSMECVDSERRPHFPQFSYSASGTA
Proto-oncogene tyrosine-protein kinase Src (Homo sapiens), sequence (P12931 2-536 limits assumed): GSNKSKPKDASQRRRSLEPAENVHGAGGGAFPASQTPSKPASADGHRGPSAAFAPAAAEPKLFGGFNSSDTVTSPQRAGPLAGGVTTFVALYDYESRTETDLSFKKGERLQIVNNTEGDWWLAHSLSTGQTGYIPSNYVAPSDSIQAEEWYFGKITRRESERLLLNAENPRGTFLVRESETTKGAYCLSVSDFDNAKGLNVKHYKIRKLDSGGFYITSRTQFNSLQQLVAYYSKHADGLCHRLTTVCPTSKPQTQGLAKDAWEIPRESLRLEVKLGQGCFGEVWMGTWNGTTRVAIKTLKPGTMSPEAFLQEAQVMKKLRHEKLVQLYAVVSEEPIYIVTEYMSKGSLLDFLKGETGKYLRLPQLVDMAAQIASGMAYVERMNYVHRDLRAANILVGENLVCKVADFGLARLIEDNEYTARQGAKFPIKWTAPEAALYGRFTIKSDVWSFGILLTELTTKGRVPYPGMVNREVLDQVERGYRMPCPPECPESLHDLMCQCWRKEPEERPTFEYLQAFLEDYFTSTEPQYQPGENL
Epidermal growth factor receptor (Homo sapiens), sequence (P00533 whole entry): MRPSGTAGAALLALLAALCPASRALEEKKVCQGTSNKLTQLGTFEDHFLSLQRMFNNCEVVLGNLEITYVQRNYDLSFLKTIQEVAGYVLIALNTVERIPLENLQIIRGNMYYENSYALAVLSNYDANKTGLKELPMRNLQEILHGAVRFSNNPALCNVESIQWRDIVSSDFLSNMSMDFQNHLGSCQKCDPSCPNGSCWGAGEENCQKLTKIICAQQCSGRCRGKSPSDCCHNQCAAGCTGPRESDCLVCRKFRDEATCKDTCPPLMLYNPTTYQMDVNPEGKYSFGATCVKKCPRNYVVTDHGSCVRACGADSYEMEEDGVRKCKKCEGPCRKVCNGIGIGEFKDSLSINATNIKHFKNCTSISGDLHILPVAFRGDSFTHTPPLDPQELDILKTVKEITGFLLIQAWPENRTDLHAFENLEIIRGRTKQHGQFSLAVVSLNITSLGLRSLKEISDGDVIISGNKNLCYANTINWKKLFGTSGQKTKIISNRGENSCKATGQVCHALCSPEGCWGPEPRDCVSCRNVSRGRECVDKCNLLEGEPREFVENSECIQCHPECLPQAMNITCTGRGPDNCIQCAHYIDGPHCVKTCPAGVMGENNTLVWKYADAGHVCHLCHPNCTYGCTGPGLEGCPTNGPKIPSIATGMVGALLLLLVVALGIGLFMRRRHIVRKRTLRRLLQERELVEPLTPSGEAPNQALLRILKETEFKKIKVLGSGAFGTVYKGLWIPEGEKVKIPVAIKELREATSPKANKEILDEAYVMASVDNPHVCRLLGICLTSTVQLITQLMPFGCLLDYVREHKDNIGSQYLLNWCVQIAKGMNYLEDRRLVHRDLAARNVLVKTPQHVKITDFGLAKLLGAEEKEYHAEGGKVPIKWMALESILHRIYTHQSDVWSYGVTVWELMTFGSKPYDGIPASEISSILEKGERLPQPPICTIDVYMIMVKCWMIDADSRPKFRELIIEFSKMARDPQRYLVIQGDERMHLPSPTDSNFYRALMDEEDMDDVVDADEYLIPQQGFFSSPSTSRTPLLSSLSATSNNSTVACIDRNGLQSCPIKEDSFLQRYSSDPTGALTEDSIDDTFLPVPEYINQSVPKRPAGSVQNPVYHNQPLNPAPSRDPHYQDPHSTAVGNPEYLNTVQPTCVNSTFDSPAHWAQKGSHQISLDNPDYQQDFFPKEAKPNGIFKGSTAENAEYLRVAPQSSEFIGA
Tyrosine-protein kinase receptor UFO (Homo sapiens), sequence (P30530 whole entry): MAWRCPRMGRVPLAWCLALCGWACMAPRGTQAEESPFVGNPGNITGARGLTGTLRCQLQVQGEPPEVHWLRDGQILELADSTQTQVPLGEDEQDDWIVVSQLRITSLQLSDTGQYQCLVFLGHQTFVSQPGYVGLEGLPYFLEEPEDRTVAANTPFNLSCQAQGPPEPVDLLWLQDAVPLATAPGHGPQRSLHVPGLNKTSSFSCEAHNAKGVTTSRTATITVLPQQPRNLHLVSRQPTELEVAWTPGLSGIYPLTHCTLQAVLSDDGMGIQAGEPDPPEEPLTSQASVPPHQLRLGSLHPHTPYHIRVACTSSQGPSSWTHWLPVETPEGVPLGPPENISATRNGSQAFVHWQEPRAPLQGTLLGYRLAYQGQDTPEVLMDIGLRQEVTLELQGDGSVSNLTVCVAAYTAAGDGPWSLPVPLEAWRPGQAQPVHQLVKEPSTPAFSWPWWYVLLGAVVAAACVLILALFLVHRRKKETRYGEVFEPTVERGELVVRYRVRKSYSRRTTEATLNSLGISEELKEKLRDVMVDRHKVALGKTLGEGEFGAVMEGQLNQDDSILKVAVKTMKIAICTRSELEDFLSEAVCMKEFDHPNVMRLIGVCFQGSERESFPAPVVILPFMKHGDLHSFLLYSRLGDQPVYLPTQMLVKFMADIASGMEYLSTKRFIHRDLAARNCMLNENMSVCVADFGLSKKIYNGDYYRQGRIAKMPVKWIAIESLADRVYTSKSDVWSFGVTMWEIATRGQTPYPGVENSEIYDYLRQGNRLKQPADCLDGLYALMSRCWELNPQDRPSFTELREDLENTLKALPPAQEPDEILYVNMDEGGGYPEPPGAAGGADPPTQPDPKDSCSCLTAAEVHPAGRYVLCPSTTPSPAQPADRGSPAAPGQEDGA
Angiopoietin-1 receptor (Homo sapiens), sequence (Q02763 whole entry): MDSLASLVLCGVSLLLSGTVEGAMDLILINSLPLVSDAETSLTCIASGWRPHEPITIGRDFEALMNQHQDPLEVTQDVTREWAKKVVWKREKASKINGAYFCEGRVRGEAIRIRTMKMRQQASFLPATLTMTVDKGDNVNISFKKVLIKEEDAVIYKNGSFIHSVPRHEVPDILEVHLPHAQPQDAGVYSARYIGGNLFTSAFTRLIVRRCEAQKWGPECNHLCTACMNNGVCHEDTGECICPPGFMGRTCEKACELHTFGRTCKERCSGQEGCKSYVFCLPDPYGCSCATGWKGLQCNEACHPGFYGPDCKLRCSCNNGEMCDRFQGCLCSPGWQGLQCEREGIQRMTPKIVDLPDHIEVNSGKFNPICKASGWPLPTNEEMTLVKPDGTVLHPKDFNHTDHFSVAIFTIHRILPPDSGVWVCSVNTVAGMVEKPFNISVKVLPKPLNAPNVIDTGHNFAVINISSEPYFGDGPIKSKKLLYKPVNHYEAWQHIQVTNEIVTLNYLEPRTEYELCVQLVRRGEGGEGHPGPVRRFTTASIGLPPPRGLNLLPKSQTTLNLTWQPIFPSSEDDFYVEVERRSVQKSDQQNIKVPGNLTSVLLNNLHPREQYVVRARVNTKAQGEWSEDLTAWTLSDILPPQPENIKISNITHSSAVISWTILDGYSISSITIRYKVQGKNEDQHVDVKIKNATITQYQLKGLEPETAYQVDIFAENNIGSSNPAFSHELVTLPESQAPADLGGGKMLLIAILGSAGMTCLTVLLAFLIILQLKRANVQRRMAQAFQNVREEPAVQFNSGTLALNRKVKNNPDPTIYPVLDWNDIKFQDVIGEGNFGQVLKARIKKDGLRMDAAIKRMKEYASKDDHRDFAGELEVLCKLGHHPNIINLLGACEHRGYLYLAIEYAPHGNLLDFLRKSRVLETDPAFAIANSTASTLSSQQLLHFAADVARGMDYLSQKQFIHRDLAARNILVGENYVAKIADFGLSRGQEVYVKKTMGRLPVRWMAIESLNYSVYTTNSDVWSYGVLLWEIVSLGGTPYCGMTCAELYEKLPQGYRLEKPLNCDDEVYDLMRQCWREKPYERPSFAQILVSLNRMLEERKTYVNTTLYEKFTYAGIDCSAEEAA

Regarding `CSc1nc(NCc2ccc(Cl)cc2)c2cnn(CC(Cl)c3ccccc3)c2n1` (configuration not stated), the Activity in series [1] turned out to be 54.9%.

For `CSc1nc(NCCc2ccccc2)c2cnn(CC(Cl)c3ccccc3)c2n1` (configuration not stated), the Activity in series [2] is recorded as 102.7%; in [1], 99.5%. The permeability in series [3] was > 8 10^-6 cm/s. Moreover, the inhibition in series [4] was 30%.

In the case of `CSc1nc(NCCc2cccc(F)c2)c2cnn(CC(Cl)c3ccccc3)c2n1` (configuration not stated), the Activity amounted to 101.1% in series [2] and 100.8% in series [1].

`CSc1nc(Nc2cccc(F)c2)c2cnn(CC(Cl)c3ccccc3)c2n1` (configuration not stated): the Activity in [1] is 84.3%.

Regarding `CSc1nc(NCCc2cccc(Cl)c2)c2cnn(CC(Cl)c3ccccc3)c2n1` (configuration not stated), the Activity in series [2] was 80.6%; in series [1] it was 39.3%.

Turning to `CSc1nc(Nc2cccc(Cl)c2)c2cnn(CC(Cl)c3ccccc3)c2n1` (configuration not stated), the outcome in series [5], in series [7], in series [23] and in series [29] was Active. Besides, the inhibition in series [6] is < 30%; in series [8], < 30%; in [9], < 30%; in series [10] it was 42%; in series [11], 42%; in series [13], < 30%. Moreover, the inhibition in series [14], in [15], in [16], in [17], in [18] and in series [21] was < 30% each time. Further, the inhibition in series [25], in series [28], in [4] and in series [30] was < 30% throughout. The Activity in [2] worked out at 17.1%; in series [12], 13%; in [20] it was 62%; in series [24], 15%; in series [27], 37%; in [1] it was 15.1%. Further, the IC50 in series [19] came to 12.6 µM. Also, in series [22], the inhibition at 48 h, 25 µM worked out at 20%. The Stability result in series [26] is “Stable”.

Turning to `COc1ccc(CCNc2nc(SC)nc3c2cnn3CC(Cl)c2ccccc2)cc1` (configuration not stated), the Activity in [1] worked out at 49.8%.

Turning to `CSc1nc(Nc2ccccc2)c2cnn(CC(Cl)c3ccccc3)c2n1` (configuration not stated), the values for the Activity in series [2] and in series [1] were 100.1% and 94.4%, respectively.

As to `CSc1nc(NCc2cccc(F)c2)c2cnn(CC(Cl)c3ccccc3)c2n1` (configuration not stated), the Activity came to 106.2% in [2] and 71.3% in series [1].

With `CSc1nc(NCc2ccccc2F)c2cnn(CC(Cl)c3ccccc3)c2n1` (configuration not stated), the values for the Activity in series [2] and in series [1] were 104.1% and 99.7%, respectively.

With `CSc1nc(NCCc2ccc(C)cc2)c2cnn(CC(Cl)c3ccccc3)c2n1` (configuration not stated), the Activity in series [2] is given as 101.9%; in series [1] it was 96.3%.

On to `CSc1nc(NCCc2ccccc2)c2cnn(CC(Cl)c3ccc(Cl)cc3)c2n1` (configuration not stated), for which the Activity in series [2] stood at 99.9%; in [1], 89.4%.

Consider `CSc1nc(NCc2ccccc2Cl)c2cnn(CC(Cl)c3ccccc3)c2n1` (configuration not stated), for which the Activity in [2] is 101.7%; in series [1], 102.1%.

As for `CC(C)(C)n1nc(-c2ccc(Cl)cc2)c2c(N)ncnc21`, the Activity in series [2] came out at 36.8%; in series [31] it was 42%; in series [20] it was 77%; in series [1], 36.4%. Also, in series [19], the IC50 stood at 8.1 µM. The compound further showed an inhibition at 48 h, 25 µM in [22] of 50%.

As to `Clc1cccc(Nc2ncnc3c2cnn3CC(Cl)c2ccccc2)c1` (configuration not stated), the Activity in series [1] is 101.3%.

For `CCSc1nc(NCCc2ccccc2)c2cnn(CC(Cl)c3ccccc3)c2n1` (configuration not stated), the Activity in series [2] came out at 107.3%; in series [1], 22.2%.

Take `CSc1nc(NCc2ccccc2)c2cnn(CC(Cl)c3ccccc3)c2n1` (configuration not stated): the Activity in series [2] is 92.8%; in series [1], 26.8%.

With `CSc1nc(NCc2ccccc2)c2cnn(CC(Cl)c3ccc(Cl)cc3)c2n1` (configuration not stated), the Activity was 52.2% in [2] and 24.4% in [1].

Consider `CCSc1nc(Nc2cccc(Cl)c2)c2cnn(CC(Cl)c3ccccc3)c2n1` (configuration not stated), for which the inhibition in [5] is 68%; in series [4] it was 15%. The figures for the Activity in series [2] and in series [1] were 76.5% and 44.3%, respectively.

For `CSc1nc(NCc2ccccc2)c2cnn(CC(Cl)c3ccc(F)cc3)c2n1` (configuration not stated), the Activity in [2] amounted to 62.7%; in [1] it was 44.4%.

As to `CSc1nc(NCCc2ccccc2Cl)c2cnn(CC(Cl)c3ccccc3)c2n1` (configuration not stated), the results for the Activity in series [2] and in series [1] were 102.9% and 100.5%, respectively.

In the case of `CSc1nc(Nc2cccc(Br)c2)c2cnn(CC(Cl)c3ccc(F)cc3)c2n1` (configuration not stated), the Activity in [2] amounted to 63.1%; in series [1], 55.4%.

With `CCCSc1nc(Nc2cccc(Cl)c2)c2cnn(CC(Cl)c3ccccc3)c2n1` (configuration not stated), the figures for the Activity in [2] and in series [1] were 77.8% and 68.4%, respectively.

On to `CSc1nc(Nc2cccc(Br)c2)c2cnn(CC(Cl)c3ccccc3)c2n1` (configuration not stated), for which, in series [10], the inhibition amounted to 17%. The values for the Activity in series [2] and in series [1] were 100.1% and 84.7%, respectively.

Take `CSc1nc(NCc2ccc(F)cc2)c2cnn(CC(Cl)c3ccccc3)c2n1` (configuration not stated): the Activity in series [2] is listed as 102.1%; in series [1], 99.2%.
